Legend:
Assay in all cases: relative viability (nuclei count vs DMSO), 5 days (fraction); higher = more cells survive
Imatinib + Trametinib = compound: Cc1ccc(NC(=O)c2ccc(CN3CCN(C)CC3)cc2)cc1Nc1nccc(-c2cccnc2)n1 [Imatinib] + CC(=O)Nc1cccc(-n2c(=O)n(C3CC3)c(=O)c3c(Nc4ccc(I)cc4F)n(C)c(=O)c(C)c32)c1 [Trametinib] (partner 0.02 µM)
Procedure, shortened: (§1)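 Relative viability was taken as the ratio of nuclei in treated wells to nuclei in vehicle wells. Lung cancer cell lines in 1536-well plates received compounds by pin tool one day after seeding, either one drug alone or a fixed anchor-drug dose plus five library-drug doses (not always all listed) in √10 steps. Nuclei were counted on 4× images after 5 days of treatment, and values are medians of duplicate plates.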

Imatinib + Tozasertib = compound: Cc1ccc(NC(=O)c2ccc(CN3CCN(C)CC3)cc2)cc1Nc1nccc(-c2cccnc2)n1 [Imatinib] + Cc1cc(Nc2cc(N3CCN(C)CC3)nc(Sc3ccc(NC(=O)C4CC4)cc3)n2)n[nH]1 [Tozasertib] (partner 0.1 µM)
Procedure, shortened: as §1

Imatinib + Phenformin = compound: Cc1ccc(NC(=O)c2ccc(CN3CCN(C)CC3)cc2)cc1Nc1nccc(-c2cccnc2)n1 [Imatinib] + N=C(N)NC(=N)NCCc1ccccc1 [Phenformin] (partner 250 µM)
Procedure, shortened: as §1

Imatinib + AZD7762 = compound: Cc1ccc(NC(=O)c2ccc(CN3CCN(C)CC3)cc2)cc1Nc1nccc(-c2cccnc2)n1 [Imatinib] + NC(=O)Nc1cc(-c2cccc(F)c2)sc1C(=O)N[C@H]1CCCNC1 [AZD7762] (partner 0.2 µM)
Procedure, shortened: as §1

Row | Cell Line | relative viability (Imatinib + Trametinib; first compound 0.02 µM) | relative viability (Imatinib + Trametinib; first compound 0.06325 µM) | relative viability (Imatinib + Trametinib; first compound 0.2 µM) | relative viability (Imatinib + Trametinib; first compound 0.6325 µM) | relative viability (Imatinib + Trametinib; first compound 2 µM) | relative viability (Imatinib + Tozasertib; first compound 0.02 µM) | relative viability (Imatinib + Tozasertib; first compound 0.06325 µM) | relative viability (Imatinib + Tozasertib; first compound 0.2 µM) | relative viability (Imatinib + Tozasertib; first compound 0.6325 µM) | relative viability (Imatinib + Tozasertib; first compound 2 µM) | relative viability (Imatinib + Phenformin; first compound 0.02 µM) | relative viability (Imatinib + Phenformin; first compound 0.06325 µM) | relative viability (Imatinib + Phenformin; first compound 0.2 µM) | relative viability (Imatinib + Phenformin; first compound 0.6325 µM) | relative viability (Imatinib + Phenformin; first compound 2 µM) | relative viability (Imatinib + AZD7762; first compound 0.02 µM) | relative viability (Imatinib + AZD7762; first compound 0.06325 µM) | relative viability (Imatinib + AZD7762; first compound 0.2 µM) | relative viability (Imatinib + AZD7762; first compound 0.6325 µM) | relative viability (Imatinib + AZD7762; first compound 2 µM)
1 | NCI-H1437 | 0.569 | 0.345 | 0.607 | 0.544 | 0.494 | 0.449 | 0.453 | 0.411 | 0.408 | 0.373 | 0.267 | 0.326 | 0.361 | 0.308 | 0.283 | 1.24 | 1.07 | 1.09 | 1.04 | 1.14
2 | LCLC-97TM1 | 0.235 | – | 0.183 | 0.207 | 0.172 | 0.236 | – | 0.14 | 0.2 | 0.214 | 0.409 | – | 0.458 | 0.498 | 0.437 | 0.28 | – | 0.238 | 0.258 | 0.177
3 | NCI-H2347 | 0.35 | – | 0.309 | 0.285 | 0.273 | – | 0.521 | 0.499 | 0.446 | 0.407 | 0.381 | 0.376 | 0.386 | 0.307 | 0.381 | 0.824 | – | 0.848 | – | 0.657
4 | NCI-H1993 | 0.45 | 0.482 | 0.622 | 0.447 | 0.584 | 0.636 | 0.632 | 0.591 | 0.581 | 0.588 | 0.56 | 0.506 | 0.519 | 0.485 | 0.52 | 1.08 | 0.728 | 0.724 | 0.736 | 0.701
5 | NCI-H1651 | 0.876 | 0.795 | 0.859 | 0.84 | 0.82 | 0.796 | 0.659 | 0.649 | 0.535 | 0.436 | 0.338 | 0.35 | 0.329 | 0.339 | 0.374 | 0.543 | 0.267 | 0.488 | 0.468 | 0.403
6 | NCI-H727 | 0.334 | – | 0.411 | 0.392 | 0.411 | 0.59 | 0.59 | 0.518 | 0.543 | 0.509 | 0.653 | – | 0.876 | 0.522 | 0.522 | 0.651 | – | 0.506 | 0.573 | 0.507
7 | BEN | 1.09 | 1.02 | 1.05 | 1.1 | 1.1 | 0.523 | 0.546 | 0.489 | 0.492 | 0.51 | 0.257 | – | 0.258 | 0.287 | 0.243 | 0.702 | 0.544 | 0.681 | 0.782 | 0.582
8 | NCI-H2170 | 1 | 1.06 | 1.02 | 0.972 | 0.965 | 0.872 | 0.872 | 0.752 | 0.585 | 0.712 | 0.448 | 0.414 | 0.406 | 0.361 | 0.301 | 0.94 | 0.77 | 0.86 | 0.745 | 0.773
9 | NCI-H1975 | 0.364 | 0.273 | 0.375 | 0.41 | 0.326 | 0.976 | 0.774 | 0.493 | 0.255 | 0.188 | 0.446 | 0.43 | 0.407 | 0.425 | 0.357 | 0.754 | 0.701 | 0.646 | 0.652 | 0.646
10 | NCI-H1395 | 1.07 | – | 1.13 | 0.999 | 0.997 | 0.679 | 0.773 | 0.76 | 0.663 | 0.7 | 0.472 | 0.4 | 0.438 | 0.471 | 0.447 | 0.369 | – | 0.343 | 0.376 | 0.393
11 | LC-2-ad | 0.956 | – | 1.01 | 0.973 | 0.908 | 0.439 | 0.439 | 0.514 | 0.2 | 0.419 | 0.626 | 0.603 | – | 0.603 | 0.557 | 0.965 | – | 0.76 | 0.772 | 0.813
12 | NCI-H647 | 0.512 | 0.414 | 0.563 | 0.365 | 0.458 | 0.554 | 0.242 | 0.0832 | 0.28 | 0.321 | 0.518 | 0.696 | 0.611 | 0.513 | 0.461 | 0.708 | 0.519 | 0.383 | 0.383 | 0.381
13 | NCI-H23 | 0.389 | 0.393 | 0.376 | 0.371 | 0.379 | 0.441 | 0.37 | 0.322 | 0.285 | 0.269 | 0.863 | 0.84 | 0.768 | 0.764 | 0.731 | 0.27 | 0.285 | 0.23 | 0.203 | 0.21
14 | NCI-H1666 | 0.82 | 0.855 | 0.823 | 1.09 | 0.924 | 0.622 | 0.623 | 0.603 | 0.665 | 0.574 | 0.534 | 0.613 | 0.592 | 0.663 | 0.551 | 0.902 | 0.873 | 0.792 | 0.849 | 0.809
15 | PC-14 | 1.01 | 1.18 | 1.11 | 0.765 | 0.897 | 0.665 | – | 0.592 | 0.591 | 0.516 | 0.626 | 0.802 | 0.586 | 0.374 | 0.656 | 0.465 | 0.477 | 0.338 | 0.453 | 0.334
16 | NCI-H596 | 0.721 | 1.06 | 0.876 | 0.693 | – | 0.886 | 0.964 | 0.993 | 0.72 | 0.829 | 0.73 | 0.663 | 0.816 | 0.693 | 0.834 | 1.21 | 1.03 | – | 0.948 | 1.13
17 | NCI-H460 | 0.142 | 0.102 | 0.199 | 0.125 | 0.21 | 0.445 | 0.576 | 0.417 | 0.0905 | 0.0547 | 0.621 | 0.555 | 0.557 | 0.443 | 0.478 | 0.658 | 0.783 | 0.606 | 0.489 | 0.509
